The values below come from PubChem BioAssay (NCI).

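How tested: cells in 96-well plates exposed to compound for 48 hours at five concentrations. Definition used: TGI = concentration required for complete inhibition of growth.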

What all share (assay): NCI tumour cell line growth inhibition, 48 h
Test [1] deals with A549 NSCLC.
The test system of test [2] is DU-145 prostate.
In test [3] the test system is HCT-116 colon.
Test [4] deals with HCT-15 colon.
Test [5] deals with HT29 colon.
For test [6], the system named is KM12 colon.
Test [7] deals with M14 melanoma.
Test [8] relates to NCI-H522 lung.
The test system of test [9] is OVCAR-4 ovarian.
In test [10] the test system is OVCAR-8 ovarian.
The test system of test [11] is PC-3 prostate.
The subject of test [12] is RPMI-8226 leukemia.
Test [13] deals with RXF 393 renal.
Test [14] deals with SF-295 CNS.
Test [15] concerns SK-MEL-5 melanoma.
The test system of test [16] is SN12C renal.
The subject of test [17] is SNB-75 CNS.
The test system of test [18] is SW-620 colon.
Test [19] has as its system T-47D breast.

In the case of `CC(=O)O[C@H]1CC[C@H]2[C@@H]3CCC4=C/C(=N/OCCN(C)C)CC[C@]4(C)[C@H]3CC[C@]12C`, the TGI in test [1] worked out at 25.6 µM; in test [2], 31 µM; in [3], 16 µM; in test [4], 12.8 µM; in test [5], 6.8 µM; in [6], 18.9 µM. Moreover, the TGI in test [7] came out at 10.1 µM; in test [8], 22.7 µM; in test [9], 23.5 µM; in [10], 28.1 µM; in test [11], 27.3 µM; in test [12], 6.27 µM. The TGI in [13] came to 27.8 µM; in test [14], 17.5 µM; in test [15] it was 9.62 µM; in test [16] it was 33.7 µM; in test [17], 19.1 µM; in test [18] it was 23.9 µM. In addition, in test [19], the TGI is 19.5 µM.

As to `Cc1c(NC(=O)CSC(=S)N(C)C)c(=O)n(-c2ccccc2)n1C`, the TGI in test [1], in test [2], in test [3], in test [4], in [5] and in test [6] was more than 100 µM in each case. Besides, the TGI in [7], in test [8], in [9], in test [10], in test [11] and in [12] was more than 100 µM throughout. For the same compound, the TGI in test [13], in test [14], in test [15], in [16], in test [17] and in test [18] was more than 100 µM in each case. Also, in test [19], the TGI is more than 100 µM.

Regarding `COC(=O)[C@]12C3=C(O)C(=O)C[C@H]1OC[C@H]2C=CC3`, the TGI in test [1] was more than 100 µM; in test [2] it was more than 100 µM; in [4], more than 100 µM; in test [6], more than 100 µM; in test [7], more than 100 µM; in test [8] it was 46.8 µM. Besides, the TGI in test [9], in [10], in [11], in test [12], in test [13] and in [14] was more than 100 µM each time. The TGI in test [15] is more than 100 µM; in test [16], more than 100 µM; in [17] it was more than 100 µM; in test [18], 63.4 µM; in test [19], more than 100 µM.

For the compound `COc1cc2c(c(OC)c1OC)C(=O)[C@@H](O)[C@H]2NC(N)=O`, the TGI in test [1], in [2], in test [3], in test [4], in test [5] and in test [6] was more than 100 µM each time. In addition, the TGI in test [7], in test [8], in test [10], in test [11], in test [12] and in test [13] was more than 100 µM each time. The TGI in [14], in [15], in test [16], in test [17], in test [18] and in test [19] was more than 100 µM in each case.

For the compound `COC1(OC)N=C(N)C2(C#N)C(C)=C3NCN(C)N=C3C12C#N` (stereo not given), the TGI in [1], in test [2], in test [3], in test [4], in test [5] and in test [6] was more than 100 µM throughout. Further, the TGI in [7], in [8], in test [10], in test [11], in test [12] and in test [13] was more than 100 µM throughout. Besides, the TGI in test [14], in test [15], in [16], in test [17], in [18] and in test [19] was more than 100 µM throughout.

In the case of `C[C@@H](NC(=O)Cn1c(Cl)nc2ccccc21)c1ccccc1`, the TGI in test [1], in test [2], in test [3], in test [4], in [5] and in test [6] was more than 100 µM each time. In addition, the TGI in test [7], in test [8], in [9], in test [10], in test [11] and in [12] was more than 100 µM throughout. Moreover, the TGI in test [13], in [14], in test [15], in test [17], in [18] and in test [19] was more than 100 µM each time.

For `Nc1n[nH]c2c(C(=O)Nc3ccc(Cl)cc3)c(N)n(N)c(=O)c12`, the TGI in test [1], in test [2], in test [3], in test [4], in test [5] and in test [6] was more than 100 µM each time. For the same compound, the TGI in test [7], in [8], in test [9], in [10], in test [11] and in test [12] was more than 100 µM throughout. Also, the TGI in test [13], in test [15], in test [16], in [17], in test [18] and in test [19] was more than 100 µM each time.

Take `C=C1C2CC3CCC2C(OC(=O)c2ccccc2C(=O)O)C13` (stereo not given): the TGI in test [1], in test [2], in test [3], in test [4], in [5] and in test [6] was more than 100 µM each time. For the same compound, the TGI in test [7], in [8], in [9], in test [10], in [11] and in test [13] was more than 100 µM in each case. The TGI in [14], in [15], in test [16], in [17], in test [18] and in [19] was more than 100 µM in each case.
